Source: publication PMC8038054, “Bis-3-Chloropiperidines Targeting TAR RNA as A Novel Strategy to Impair the HIV-1 Nucleocapsid Protein” (Molecules, 2021)

Legend:
[1] = cited from earlier work
TAR RNA [2] = assay: ESI-MS of reaction mixtures of B-CePs with TAR; assay type: binding, HIV-1
Text: To elucidate the molecular details of the products observed by PAGE, we further characterized the outcome of the reaction with TAR by electrospray ionization-mass spectrometry (ESI-MS). A preliminary determination was accomplished on the individual TAR construct, and a representative ESI-MS spectrum is provided in Figure 4A. Only the region containing the 5-charge state is shown for the sake of clarity. The detected species labelled [TAR-5H]^5− in Figure 4A afforded an experimental mass of 9286.25 Da, which matches the monoisotopic value of 9286.24 Da calculated from the RNA sequence very closely (Table 1). Successively, we performed the experiment by reacting compound 1 with TAR at 1 μM. After 2 h of incubation, at 37 °C, the reaction mixture was submitted to ethanol precipitation to achieve quenching and desalting, which enabled a direct infusion ESI-MS analysis. […] In the presence of nucleic acids, aziridinium preferentially attacks N7 of guanines on the substrate, forming different types of adduct (Scheme S1 in Supplementary Materials).^22 Analyzing a new species in Figure 4B, their masses matched those of products generated by either mono- or bis-alkylation reactions. The species TAR + 1B, displaying a mass of 9548.49 u, corresponded to bi-functional adducts formed by the reaction of both 3-chloropiperidine reactive moieties with the RNA strand (labelled [TAR + 1B − 5H]^5− in the inset in Figure 4B). Differently, TAR + 1M species with a mass of 9566.49 u was assigned to mono-functional adducts, in which only one of the 3-chloropiperidines reacted with the substrate, whereas the other was hydrolyzed to 3-hydroxyl by the aqueous environment (labelled [TAR + 1M − 5H]^5− in the inset in Figure 4B). Table 1 summarizes the experimental and calculated masses of the new products and provides the assignment of the various species detected in Figure 4B.
Figure 4 Representative electrospray-ionization mass spectrometry (ESI-MS) spectra of reaction mixtures obtained by incubating TAR (1 μM) with increasing B-CeP 1 (A:0, B:1, C:10, D:50 μM) at 37 °C for 2 h in a BPE buffer (pH 7.4). The spectra B–D show the concentration-dependent reactions induced by B-CeP 1 on TAR. Greater stoichiometries corresponding to combinations of mono- and bi-functional adducts, were detected and indicated in orange in the figure. The spectra were recorded in 150 mM ammonium acetate. Lower intensity signals near free/adducted species consist of typical sodium and ammonium adducts. Only region containing the 5-charge state is shown for the sake of clarity.
The results shown in Figure 4C,D show the reaction products obtained, further increasing the concentration of compound 1, with 1 μM TAR solution incubated with 10 and 50 μM of B-CeP 1, respectively. […]

[3] = test system: recombinant full-length HIV-1 NC; assay: High-throughput screening (HTS): inhibition of NC-mediated melting of TAR RNA hairpin; assay type: biochemical; conditions: 0.1 μM TAR, 0.8 μM NC, compound pre-incubated 37 °C 2 h; mean of three experiments; read-out: IC50, inhibition of NC-mediated melting of individual TAR RNA hairpin
Procedure: This assay is based on the doubly labeled TAR construct used above in the FQA experiments and is extensively employed to screen for inhibitors of NC melting activity. After preliminary controls to ensure the absence of direct quenching activity by the compounds under investigation, their ability to inhibit TAR RNA melting was evaluated in the presence of recombinant full-length HIV-1 NC. By adding increasing amounts of B-CePs, we determined the concentration of each compound that induced a 50% reduction in the destabilizing activity of NC (i.e., IC50) on TAR.
High-throughput screening (HTS) was performed to identify the inhibitors of NC chaperone activity on TAR. We used a VictorIII (PerkinElmer) microplate reader with 485 and 535 nm as the excitation and emission wavelengths. The TAR RNA hairpin was formed by snap cooling in the 1× BPE buffer, as described above. A 1 μM aliquot of TAR, which bore 5′-FAM and 3′-DAB modifications, was folded in 1× BPE buffer. The samples were then diluted to 0.1 μM in 1× BPE buffer. Increasing concentrations of compound (0, 0.1, 0.5, 1, 5, 10, 50, 100 μM final) were added to each sample and incubated at 37 °C for 2 h before introducing NC to a final concentration of 0.8 μM (for a 1:8 oligo to NC molar ratio). The plate was immediately read at room temperature three times with 1 min intervals, unless differently specified. The experimental data were fitted as reported earlier to enable calculation of the respective IC50 value.16 Each experiment was performed in triplicate to calculate an average and standard deviation.

TAR RNA [4] = assay: Electrophoretic Mobility Shift Assay (EMSA), non-denaturing PAGE; assay type: binding, HIV-1; conditions: 1 μM folded TAR, 0-50 μM compound, 2 h 37 °C, BPE buffer pH 7.4
Procedure: To further evaluate the interaction of B-CePs to TAR RNA, Electrophoretic Mobility Shift Assay (EMSA) was used as a simple tool to visualize the putative interaction of compound 1 with TAR. The RNA was folded in its hairpin secondary structure, incubated for 2 h at 37 °C with increasing concentrations of compound 1 (0, 1, 5, 10, 25, 35, 50 μM), and the reaction products were resolved by polyacrylamide gel electrophoresis (PAGE). Figure 3 provides the results obtained in non-denaturing PAGE.
Figure 3 Non-denaturing polyacrylamide gel electrophoresis (PAGE) (PAA 12%) in TBE 1× showing the concentration-dependence of the interaction of B-CeP 1 with TAR. Folded TAR hairpin 1 μM was incubated with increasing concentrations of compound (0, 1, 5, 10, 25, 35, 50 μM) for 2 h at 37 °C with a BPE buffer (pH 7.4).
Electrophoretic Mobility Shift Assay (EMSA) was used to assess the ability of compound 1 to directly interact to TAR RNA construct. Prior to incubation with compound, TAR RNA was heated to 95 °C for 5 min and then ice-cooled in order to assume the proper hairpin structure. TAR RNA construct (1 μM) was then incubated with increasing concentrations (from 0 to 50 μM) of B-CeP 1, at 37 °C for 2 h in 1× BPE buffer (pH 7.4). […] Fluorescence in gel system was detected on a Geliance 600 Imaging System (PerkinElmer, Waltham, MA, USA).

TAR RNA [5] = assay: Fluorescence quenching assay (FQA): thermal melting of TAR RNA hairpin; assay type: binding, HIV-1; conditions: 10 μM compound, 1 μM TAR, 37 °C 2 h, BPE buffer
Text: A first insight into the putative interaction of B-CePs with RNA was offered by the investigation of the ability of the selected compounds to stabilize the TAR hairpin structure. We employed fluorescence quenching assays (FQA) to measure the ability of each B-CeP to modify the thermal denaturation profile of the TAR construct shown in Figure 1A, which was functionalized at both termini with a fluorophore-quencher couple. In this way, thermal melting of the structure can be assessed from the intensity of the detected fluorescence signal. The melting profile of TAR in the presence of increasing concentrations of each compound allowed an evaluation of the shift in melting temperature (ΔTm) from the reference value, which was determined in the absence of compound. Sample solutions contained 1 μM of RNA substrate and 10, 50 or 100 μM of each B-CePs compound. Figure 2 summarizes the values of ΔTm obtained by adding increasing concentrations of B-CePs 1–5. […]
The ability of the tested compounds to stabilize the TAR RNA structure was measured by the increase in the melting temperature of the oligoribonucleotide in the presence of different concentrations of each compound. […] Fluorescence emission of FAM was read by using a Light Cycler 480 II (Roche, Basel, CH) with emission at λ = 510 nm and correlated to the melting temperature of the oligoribonucleotide. […]

Row | SMILES | IC50 [3] [µM] | Tm increase of TAR RNA (stabilization effect) (TAR RNA [5]) | also measured
1 | CC1(C)CC(Cl)CN(CCCN2CC(Cl)CC(C)(C)C2)C1 (centres unmarked) [Compound 1] | 4.75 ± 0.15 |  | Cytotoxicity ([1]; ref [22],[25]): low cytotoxicity; Binding stoichiometries on TAR detected by ESI-MS (TAR RNA [2]; 1 μM TAR with 10 and 50 μM compound): up to five equivalents; Products of the reaction with TAR detected by ESI-MS (TAR RNA [2]; 1 μM TAR, 37 °C 2 h, BPE buffer): covalent adducts; Fragmentation of the oligoribonucleotide chain of TAR RNA (TAR RNA [2]; ESI spectrometry and gel electrophoresis): not detected; Concentration at which binding events (band shift) reach a plateau (TAR RNA [4]): 25 µM
2 | CC1(C)CC(Cl)CN(CCCCCCN2CC(Cl)CC(C)(C)C2)C1 (centres unmarked) [Compound 3] | 3.55 ± 0.37 |  | 
3 | COC(=O)[C@@H](CCCCN1CC(Cl)CC(C)(C)C1)N1CC(Cl)CC(C)(C)C1 (some centres unmarked) [Compound 5] | 4.78 ± 0.71 | much weaker stabilization effect | 
4 | COC(=O)[C@H](CCCCN1CC(Cl)CC(C)(C)C1)N1CC(Cl)CC(C)(C)C1 (some centres unmarked) [Compound 4] | 5.09 ± 0.05 | much weaker stabilization effect | 
5 | CC1(C)CC(Cl)CN(CCCCCN2CC(Cl)CC(C)(C)C2)C1 (centres unmarked) [Compound 2] | 2.75 ± 0.7 |  | Effect of the longer linker on cell permeability and cytotoxicity ([1]; ref [26]): increases cell permeability and cytotoxicity; Relative reactivity towards the TAR construct (comparison of ESI-MS spectra) (TAR RNA [2]; same B-CeP/TAR molar ratio (10 μM compound, 1 μM TAR)): most reactive
